{
  "source": "patent US20140199327A1",
  "about": "“METHODS OF PROMOTING DIFFERENTIATION” (Genentech, Inc., priority 2011, published 2014)",
  "tested_on": "p21",
  "experiment": "p21 and p53 expression in U2-OS cells",
  "assay_type": "cell-based, human",
  "conditions": "etoposide treatment",
  "protocol": "U2-OS, HOS, SJSA, SAOS, or MG-63 cells were grown to 10-25% confluence and transfected with the plasmids indicated in combination with the marker plasmid pMACS using FuGENE 6 (Sigma).\nTransfected cells were sorted with MACS-select H-2K^k microbeads (Miltenyi Biotec). RNA was extracted from cultured or sorted transfected cells with Qiagen RNeasy Mini kits. Protein was extracted from sorted or cultured cells via lysis in NP-40 buffer (1% NP-40, 120 mM NaCl, 50 mM Tris, pH=7.4, 1 mM EDTA) supplemented with protease inhibitor cocktail I and phosphatase inhibitor cocktails 1 and 2 (Calbiochem). Lysates were clarified by centrifugation at 15,000×G for 10 minutes prior to analysis. Protein content was normalized by BCA protein assay (Thermo Scientific). For dual shRNA/siRNA experiments, cells were transfected with DNA expression vectors via Fugene and subsequently transfected with control siRNA (sense-5′-[…]-3′ (SEQ ID NO:20)) or siRNA targeting p21 (5′-[…]-3′ (SEQ ID NO:21)) via nucleofection with program X-001 in nucleofection solution V (Lonza). DT-40 cells were transfected by nucleofection with program B-023 in nucleofection solution T (Lonza).\nRat monoclonal antibodies were raised against the C-terminal 100 amino-acids of human USP1 or WDR48 to produce the monoclonal USP1 antibody 5E10 and WDR48 antibody 9F10. […]",
  "data": [
    {"compound": "COc1cc([C@@H]2c3cc4c(cc3[C@@H](O[C@@H]3O[C@@H]5CO[C@@H](C)O[C@H]5[C@H](O)[C@H]3O)[C@H]3COC(=O)[C@H]23)OCO4)cc(OC)c1O", "note": "[etoposide]", "values": [
      {"measurement": "p21 induction", "result": "induced"}
    ]}
  ]
}
